# Test results as given in US20250082787A1, “ALGINIC ACID-BASED INJECTABLE HYDROGEL SYSTEM” (National Cancer Center, priority 2018, published 2025).
# What was measured:
# [1] = Persistence of fluorescence after subcutaneous injection in nude mouse (IVIS fluorescence image); assay type: in vivo
# Method: In order to see the fluorescence persistence of the alginic acid hydrogel containing indocyanine green-human serum albumin in a nude mouse, it was injected in the form of a gel subcutaneously to the nude mouse through a dual syringe, and then the labeling performance over time was photographed with a fluorescent image device (IVIS Lumina XR, Xenogen Corporation-Caliper, CA, USA). Three solutions to be injected into the animal model were prepared in the same manner as in Preparation Examples 7 to 9. FIG. 7 is a schematic diagram of injecting an alginic acid hydrogel containing indocyanine green-human serum albumin subcutaneously to a nude mouse using a dual syringe.
# The solutions of Preparation Examples 7 to 9 were injected subcutaneously to a nude mouse, respectively so that the total volume was 100 μL using a dual syringe.
# [2] = 2 to 100 μM in distilled water, λex=720 nm
# Method: Before developing a surgical marker using indocyanine green and human serum albumin conjugate, in order to determine the appropriate concentration of indocyanine green and human serum albumin conjugate, the two substances were mixed by each concentration to observe change in fluorescence (λex=720 nm) and absorbance.
# 3 mL of distilled water was added to 1.5 mg of indocyanine green (ICG, purchased from Sigma-Aldrich) and dissolved by stirring to prepare a high concentration of indocyanine green solution. Distilled water was added to the high concentration of indocyanine green solution and mixed through stirring to prepared a 2 to 100 μM solution.
smiles,measurement,setting,value
CC1(C)C(/C=C/C=C/C=C/C=C2\N(CCCCS(=O)(=O)O)c3ccc4ccccc4c3C2(C)C)=[N+](CCCCS(=O)(=O)[O-])c2ccc3ccccc3c21 [indocyanine green],time fluorescence was maintained / emitted (FIG. 8),"[1]; 100 μL subcutaneous, nude mouse, λex=780 nm, λem=845 nm",about one
same,time at which fluorescence (ROI value) was greatest,"[1]; FIG. 10A, nude mouse",6 h
same,time in which fluorescence signals almost disappeared,"[1]; FIG. 10C, nude mouse",48 h
same,fluorescence remaining compared to immediately after injection,"[1]; ROI value, when one day passed",16%
same,time after which injected solution spread and disappeared at injection site (FIG. 9),"[1]; appearance of injected site, nude mouse",about 24 hours
same,concentration up to which maximum fluorescence intensity increased,[2],about 20 μM
